# Measurements: patent US12667570B2, “Small molecule modulators of KSR-bound MEK” (Icahn School of Medicine at Mount Sinai, priority 2020, dated 2026)
# Key:
# [1] = molecular target: T1, mouse KSR1-luc (KSR-bound MEK) (UniProt Q02750+Q61097); experiment: NanoBRET in-cell steady-state IC50 (competition with tram-bo tracer), KSR1-luc; format: binding
# T1 construct: expressed in transfected cells; host or cells: HEK293T
# [2] = molecular target: KSR1-luc (KSR-bound MEK) (UniProt Q02750+Q61097); experiment: NanoBRET washout experiment, intracellular residence time, KSR1-luc; format: binding, mouse; details: BRET build-up with 1 μM tram-bo, […] time course
# Method: (§1) Specifically, transfections of MEK1-luc and KSR1-luc, and construction of the drug transfer plates were carried out as mentioned above. For washout experiments, cells were first removed from adherent plates by trypsin treatment. Following, cells were harvested, spun, and resuspended in Opti-MEM (270 μL total) in centrifuge tubes at 450,000 cells/tube.
# [3] = molecular target: T2, MEK1-luc (Homo sapiens, UniProt Q02750); experiment: NanoBRET washout experiment, intracellular residence time, MEK1-luc; format: binding; details: BRET build-up with 1 μM tram-bo, […] time course
# Method: as §1
# [4] = molecular target: BRAF-MEK1 complex (Homo sapiens, UniProt P15056+Q02750, R662A); experiment: Co-immunoprecipitation via endogenous MEK1 from HCT116 cells, BRAF; format: cell-based; details: 200 nM, 1 hour
# [5] = molecular target: KSR1-MEK1 complex (UniProt Q02750+Q61097, P775N); experiment: Co-immunoprecipitation via endogenous MEK1 from HCT116 cells, FLAG-KSR1; format: cell-based, mouse KSR1; details: 200 nM, 1 hour
# [6] = molecular target: T2, MEK1-luc; experiment: NanoBRET in-cell steady-state IC50 (competition with tram-bo tracer), MEK1-luc; details: IC50 MEK1-luc versus KSR1-luc
# [7] = test system: HCT 116; experiment: Cell proliferation / viability assay under low-adherence conditions; format: cell-based, human
# Method: A375, A549, HCT116, and SKMEL-239 cells were plated in Corning Costar Ultra-Low Attachment 96-well plates (Reference number 3434). After 24 hours of incubation at 37° C., cells were treated with inhibitors (0.1% DMSO in final volume). Cells were grown for five days, and resazurin sodium salt was added at a final concentration of 0.01 μg/μL. Fluorescence was measured using a Molecular Devices SpectraMax M5 spectrophotometer after a 4-24-hour incubation with resazurin solution. Technical triplicate values were averaged for each experiment, and biological replicate values are represented as average+/−standard deviation. For each cell line, log EC50 values of inhibitors were statistically compared using the extra sum-of-squares F test in GraphPad Prism 8 (FIG. 57, 58, 67, 68, 69).
# [8] = molecular target: T3, BRAF-MEK1 complex (Homo sapiens, UniProt P15056+Q02750); experiment: Co-immunoprecipitation via endogenous MEK1 from HCT116 cells, BRAF; format: cell-based; details: 200 nM, 1 hour, relative to DMSO
# T3 construct: IP/WB of endogenous MEK1 from HCT116 cells; endogenous in cells; host or cells: HCT116
# [9] = test system: MEK1 and MEK2; experiment: In vitro kinase profiling, direct binding assays, MEK1/MEK2; details: 1 μM
# From the text: (§2) FIG. 65 Trametiglue targets both KSR-MEK and RAF-MEK with unprecedented potency and selectivity via unique interfacial binding interactions.
# [10] = test system: isolated BRAF or CRAF; experiment: In vitro kinase profiling, direct binding assays, BRAF/CRAF; details: 1 μM
# From the text: as §2
# [11] = test system: MEK1 and MEK2; experiment: In vitro substrate phosphorylation assays, MEK1/MEK2; format: biochemical; details: panel of active kinases
# From the text: as §2
# [12] = test system: BRAF and CRAF phosphorylation of MEK1; experiment: In vitro phosphorylation of MEK1 by upstream kinases; format: biochemical; details: MEK1 as substrate
# From the text: as §2
# [13] = test system: KRAS-G12S A549 cells; experiment: Long-term clonogenic assay; format: cell-based, human; details: 10 nM final concentration, in comparison to amide-linker compounds (1, 3)
# Method: Cells were plated at a density of 6,000 cells per well in 6-well plates in 3 mL of culture medium. Twenty-four hours after seeding, compounds dissolved in DMSO or DMSO-only vehicles were added directly to the culture media at a 1:1000 dilution. Following 10 days of culture, cells were washed 2× in PBS, fixed in ice-cold methanol for 10 minutes, stained with crystal-violet at room temperature for 10 minutes, and subsequently washed three times in water. Plates were allowed to dry overnight before imagining with an Epson V600 scanner.
# [14] = test system: phosphorylated ERK1/2 at residues T202 and Y204 (pERK); experiment: Immunoblot of RAS/ERK pathway inhibition; format: cell-based, human; details: 1 hour, increasing concentrations
# Method: Cells were plated at a density of 300,000 cells per well in 6-well plates in 2 mL of culture medium. 24 hours after seeding, cells were treated with compounds or DMSO at a 1:1000 dilution (0.1% DMSO in final volume). […] Samples were normalized to a protein content of 5 μg/μL in 100 μL total volume, and 20 μL of 6×SDS was added. […] Transfers were confirmed using ponceau red, washed, and then blocked for 1 hour with 5% BSA TBS-T, prior to overnight incubation with primary antibodies including phospho-ERK1/2 T202/Y204 and total ERK1/2 (Cell Signaling Technologies (CST) 9101S and 4695S, respectively) in 5% BSA TBS-T. The next day, blots were washed extensively, and incubated in secondary antibody (Anti-Rabbit IgG HRP-Linked CST 7074S).
# [15] = molecular target: T4, isolated MEK1 (Oryctolagus cuniculus, UniProt P29678, S298N/S299K/Y300F); experiment: Bio-layer interferometry (BLI), isolated MEK1; format: binding, rabbit; details: read-out: dissociation constant (KD), isolated MEK1
# T4 construct: rabbit MEK1 (residues 35-393; Uniprot ID: P29678); hexahistidine tag with TEV-cleavage site (N); made in house; host or cells: SF21 insect cells (baculovirus)
# Method: (§3) BLI measurements were performed using an Octet Red96 (Forte Bio, Inc.) system. All experiments were conducted at 25° C. with shaking at 1000 rpm, and in a buffer containing 20 mM Hepes pH 7.5, 200 mM NaCl, 1 mM ATP, 5 mM MgCl2, 0.02% Tween-20, 1% DMSO. […] This amount of immobilization typically achieved 1.5-2.0 nm binding signal. Biosensors were then washed in buffer, treated in a solution of biocytin for 3 min, and then again washed extensively to achieve a normalized baseline signal of ˜0 nm. Following, for kinetic analysis, biosensors were dipped in solutions of free MEK1, BRAF:MEK1, KSR1:MEK1, or KSR2:MEK1. Association was measured for 10 or 15 minutes, following a dissociation phase in buffer of 15 minutes. […] All experiments were performed at least three independent times, with raw data processed and analyzed using global fit binding models in Fortebio software to derive KD (M), Kon(1/M·s), and Kdis (1/s) values. […] One-to-one binding models provided a high agreement with the measured binding signals based on chi-squared and R-squared values. Raw data and fitting, mean and standard deviation determinations, as well as statistical analysis, for KD, kon(1/M·s), kdis(1/s), and τ(min) are included in FIG. 71.
# [16] = molecular target: T5, BRAF-MEK1 (Oryctolagus cuniculus, UniProt P29678, S298N/S299K/Y300F); experiment: Bio-layer interferometry (BLI), BRAF-MEK1; format: binding, human BRAF; rabbit MEK1; details: read-out: dissociation constant (KD), MEK1-BRAF
# T5 construct: human BRAF (residues 432-726; Uniprot ID: P15056); rabbit MEK1 (residues 35-393; Uniprot ID: P29678); hexahistidine tag with TEV-cleavage site (N); made in house; host or cells: SF21 insect cells (baculovirus)
# Method: as §3
# [17] = molecular target: T6, KSR1-MEK1 (UniProt P29678+Q8IVT5, S298N/S299K/Y300F); experiment: Bio-layer interferometry (BLI), KSR1-MEK1; format: binding, human KSR1; rabbit MEK1; details: read-out: dissociation constant (KD), KSR1-MEK1
# T6 construct: human KSR1 (residues 591-899; Uniprot ID:Q8IVT5); rabbit MEK1 (residues 35-393; Uniprot ID: P29678); hexahistidine tag with TEV-cleavage site (N); made in house; host or cells: SF21 insect cells (baculovirus)
# Method: as §3
# [18] = molecular target: T7, KSR2-MEK1 (UniProt P29678+Q6VAB6, S298N/S299K/Y300F); experiment: Bio-layer interferometry (BLI), KSR2-MEK1; format: binding, human KSR2; rabbit MEK1; details: read-out: dissociation constant (KD), KSR2-MEK1
# T7 construct: human KSR2 (residues 634-950; Uniprot ID: Q6VAB6); rabbit MEK1 (residues 35-393; Uniprot ID: P29678); hexahistidine tag with TEV-cleavage site (N); made in house; host or cells: SF21 insect cells (baculovirus)
# Method: as §3
# [19] = molecular target: T8, human KSR1-luc (Homo sapiens, UniProt Q02750+Q8IVT5); experiment: Tram-bo BRET buildup curves, KSR1-luc; format: binding
# T8 construct: expressed in transfected cells; host or cells: HEK293T
# Method: (§4) Human c-terminal NanoLuc fusions versions of ARAF (Uniprot P10398), BRAF (UniProt P15056), CRAF (Uniprot P04049), KSR1 (Uniprot Q8IVT5), and KSR2 (Uniprot Q6VAB6) were transfected as mentioned above at a concentration of 0.1 μg/mL in combination with 9.9 μg/mL of carrier DNA. All RAF constructs from Promega. […] A 20× tram-bo solution was added to each well to give final concentrations of 4, 1, 0.5, 0.1, 0.05, 0.01, 0.001, 0.0001 μM. […] All data were analyzed using Prism 8 (GraphPad).
# [20] = molecular target: T9, human KSR2-luc (Homo sapiens, UniProt Q02750+Q6VAB6); experiment: Tram-bo BRET buildup curves, KSR2-luc; format: binding
# T9 construct: expressed in transfected cells; host or cells: HEK293T
# Method: as §4
# [21] = test system: ARAF-luc, BRAF-luc, and CRAF-luc; experiment: Tram-bo BRET buildup curves, RAF family; format: binding, human; details: in cells
# Method: as §4
# [22] = HCT 116, low-adherence conditions
# [23] = BRET buildup, increasing tram-bo
# T7 sequence (Q6VAB6 634-950): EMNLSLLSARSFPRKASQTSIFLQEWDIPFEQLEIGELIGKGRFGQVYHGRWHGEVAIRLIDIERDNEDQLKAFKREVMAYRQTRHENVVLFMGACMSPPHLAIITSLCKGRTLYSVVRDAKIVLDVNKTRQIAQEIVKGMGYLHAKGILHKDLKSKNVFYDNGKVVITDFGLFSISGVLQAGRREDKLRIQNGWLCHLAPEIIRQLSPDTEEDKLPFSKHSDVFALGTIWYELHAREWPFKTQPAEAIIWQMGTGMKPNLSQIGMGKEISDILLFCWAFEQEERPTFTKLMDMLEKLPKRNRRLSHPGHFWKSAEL
# T7 sequence (P29678 35-393 S298N/S299K/Y300F): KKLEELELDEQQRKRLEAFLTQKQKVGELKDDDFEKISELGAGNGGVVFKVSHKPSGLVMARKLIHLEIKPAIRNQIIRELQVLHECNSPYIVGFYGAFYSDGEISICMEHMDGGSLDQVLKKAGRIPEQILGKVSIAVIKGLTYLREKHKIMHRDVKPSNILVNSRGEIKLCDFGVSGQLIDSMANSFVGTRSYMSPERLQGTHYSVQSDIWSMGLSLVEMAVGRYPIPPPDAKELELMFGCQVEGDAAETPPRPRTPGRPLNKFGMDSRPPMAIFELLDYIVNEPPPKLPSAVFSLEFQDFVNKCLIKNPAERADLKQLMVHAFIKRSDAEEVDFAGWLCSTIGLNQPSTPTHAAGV
# T5 sequence (P29678 35-393 S298N/S299K/Y300F): as above
# T4 sequence (P29678 35-393 S298N/S299K/Y300F): as above
# T6 sequence (Q8IVT5 591-899): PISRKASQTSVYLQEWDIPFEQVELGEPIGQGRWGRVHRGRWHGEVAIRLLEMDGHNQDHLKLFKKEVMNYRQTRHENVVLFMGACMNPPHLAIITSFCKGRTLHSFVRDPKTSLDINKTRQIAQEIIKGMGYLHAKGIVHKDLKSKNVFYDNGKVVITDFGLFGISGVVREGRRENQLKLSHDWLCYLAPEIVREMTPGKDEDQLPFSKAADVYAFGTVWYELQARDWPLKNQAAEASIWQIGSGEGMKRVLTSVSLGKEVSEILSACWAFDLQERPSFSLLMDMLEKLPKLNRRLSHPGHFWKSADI
# T6 sequence (P29678 35-393 S298N/S299K/Y300F): as the sequence (P29678 35-393 S298N/S299K/Y300F) above
structure (smiles),measurement,setting,value
O=C(c1ccc(F)c(F)c1Nc1ccc(I)cc1F)N1CC(O)([C@@H]2CCCCN2)C1 [cobimetinib],IC50 on KSR1-luc compared with MEK1-luc,[1]; competition of tram-bo,more potent IC50 values on KSR1-luc over MEK1-luc
same,dissociation kinetics after washout on KSR1-luc,[2],dissociated more readily
same,dissociation kinetics after washout on MEK1-luc,[3],dissociated more readily
same,pulldown of BRAF mutant B2 (R662A) via endogenous MEK1,[4],did not alter complex stability
same,pulldown of KSR1 mutant K1 (P775N) via endogenous MEK1,[5],did not alter complex stability
same,difference in potency between KSR1-luc and MEK1-luc,[6],~20 fold
"CNS(=O)(=O)Nc1cccc(-n2c(=O)n(C3CC3)c(=O)c3c(Nc4ccc(I)cc4F)n(C)c(=O)c(C)c32)c1 [trametiglue, N-(3-(3-Cyclopropyl-5-((2-fluoro-4-iodophenyl)amino)-6,8-dimethyl-2,4,7-trioxo-3,4,6,7-tetrahydropyrido[4,3-d]pyrimidin-1(2H)-yl)phenyl)methylaminosulfonamide]",potency and off-rate kinetics compared with trametinib,"[1]; KSR-luc or MEK-luc reporters, steady-state and washout",retained similar potency and off-rate kinetics as trametinib
same,improvement in potency relative to CH5126766,[7]; [22],~200 fold
same,improvement in potency relative to trametinib,[7]; [22],approximately 7 fold
same,IC50,"[7]; Homo sapiens, HCT-116, 120 h, low-adherence conditions, five days",0.07 ± 0.04 nM
same,pulldown of wild-type BRAF via endogenous MEK1,[8],markedly enhanced capture of BRAF
same,selectivity in kinase binding experiments,[9],strong selectivity towards MEK1 and MEK2
same,direct interaction with isolated BRAF or CRAF,[10],no direct interactions
same,inhibition of MEK1 and MEK2 substrate phosphorylation,[11],inhibited MEK1 and MEK2
same,inhibition of MEK1 phosphorylation by upstream kinases,[12],inhibition of both BRAF and CRAF phosphorylation of MEK1
same,growth inhibition in clonogenic assay,[13],enhanced and durable growth inhibition
same,"inhibition of RAS-MAPK signaling measured by pERK, relative to trametinib",[14],higher potency inhibitor of RAS-MAPK signaling
CC(=O)Nc1cccc(-n2c(=O)n(C3CC3)c(=O)c3c(Nc4ccc(I)cc4F)n(C)c(=O)c(C)c32)c1 [trametinib],Kd,[15],131 ± 9.4 nM
same,Kd,[16],217 ± 3.2 nM
same,Kd,[17],63.9 ± 4.7 nM
same,Kd,[18],70.4 ± 4.4 nM
"CCN(C)S(=O)(=O)Nc1cccc(-n2c(=O)n(C3CC3)c(=O)c3c(Nc4ccc(I)cc4F)n(C)c(=O)c(C)c32)c1 [compound 6, N-(3-(3-cyclopropyl-5-((2-fluoro-4-iodophenyl)amino)-6,8-dimethyl-2,4,7-trioxo-3,4,6,7-tetrahydropyrido[4,3-d]pyrimidin-1(2H)-yl)phenyl)-N′-ethyl(methyl)sulfonamide 2,2,2-trifluoroacetate]",growth inhibition in clonogenic assay,[13],enhanced and durable growth inhibition
"Cc1c(=O)n(C)c(Nc2ccc(I)cc2F)c2c(=O)n(C3CC3)c(=O)n(-c3cccc(NS(=O)(=O)NC4CC4)c3)c12 [compound 5, N-(3-(3-cyclopropyl-5-((2-fluoro-4-iodophenyl)amino)-6,8-dimethyl-2,4,7-trioxo-3,4,6,7-tetrahydropyrido[4,3-d]pyrimidin-1(2H)-yl)phenyl)cyclopropylaminosulfonamide]",growth inhibition in clonogenic assay,[13],enhanced and durable growth inhibition
CNS(=O)(=O)Nc1nccc(Cc2c(C)c3ccc(Oc4ncccn4)cc3oc2=O)c1F [CH5126766],pulldown of wild-type BRAF via endogenous MEK1,[8],enhances interactions between endogenous BRAF and MEK1
Cc1c(=O)n(C)c(Nc2ccc(I)cc2F)c2c(=O)n(C3CC3)c(=O)n(-c3cccc(NC(=O)CCOCCOCCNC(=O)CCC4=[N+]5C(=Cc6ccc(-c7ccc[nH]7)n6[B-]5(F)F)C=C4)c3)c12 [tram-bo],"binding to KSR1-luc relative to ARAF-luc, BRAF-luc and CRAF-luc",[19]; [23],~10 fold
same,"BRET binding signal, KSR1-luc",[19]; in cells,strong BRET binding signals
same,"binding to KSR2-luc relative to ARAF-luc, BRAF-luc and CRAF-luc",[20]; [23],~10 fold
same,"BRET binding signal, KSR2-luc",[20]; in cells,strong BRET binding signals
same,"BRET signal, ARAF-luc, BRAF-luc, CRAF-luc",[21],much weaker BRET signals
